Data taken from patent publication US4473554A, “Bestatin-related compounds as immunopotentiator” (Zaidan Hojin Biseibutsu Kagaku Kenkyu Kai, priority 1982, dated 1984).
Values after ≈ are worked out from the molar mass of the structure shown.

Columns and labels:
[1] = test system: D.T.H. response in tumor-bearing (Sarcoma 180) mice immunized with SRBC; assay: D.T.H. footpad test in Sarcoma 180 tumor-bearing mice immunized with SRBC, Example 23; assay type: in vivo, mouse; conditions: Sarcoma 180-bearing CDF1 mice
Experimental: This Example describes the tests for evaluation of the immunopotentiating activity of the new compound of this invention. Thus, the effect of the new compound of cell-mediated immunity was tested according to a known technique of Delayed Type Hypersensitivity (D.T.H.) (see P. H. Lagrange et al. "J. Exp. Med." Vol. 139, 1529-1539 (1974)) using tumor-bearing mice which had been immunized with sheep red blood cell (SRBC) as antigen as inoculated into the footpad of the mice.
Thus, a suspension of 10^8 sheep red blood cells in 0.05 ml of physiological saline was subcutaneously injected at the time of immunization into the right hind footpad of each CDF1 -mouse under test (female, 8 weeks-aged, 6 mice in each group) to which 10^6 cells of the tumor cell, Sarcoma 180 had been inoculated intraperitoneally.
On the same day as the day when the immunization with SRBC was effected, as well as on the subsequent, consecutive four days, the mouse under test were then treated by intraperitoneal administration of 0.05 mg/kg, 0.5 mg/kg or 5 mg/kg per day of the test compound as the solution which was prepared by dissolving the test compound in physiological saline and then filtering the solution by a micropore filter (pore diameter: 0.22 micrometers). Two days after the immunization with SRBC, 10^8 SRBC were subcutaneously injected into the left hind footpad of each test mouse for elicitation of the D.T.H. responde. 24 Hours after the elicitating injection, the increased thickness of the left hind footpad was measured with calipers to estimate the degree of swelling in the footpad. The swelling degree is expressed in term of the values calculated by the equation: [formula] The degree of swelling serves to evaluate the degree of cell-mediated immunity involved. For comparison, a suspension of bestatin dispersed in water was tested in the same way as above.

ICR-strain mice = assay: acute toxicity, intraperitoneal, ICR-strain mice; assay type: in vivo, mouse; conditions: dosage of 100 mg/kg
Text: In order to estimate the acute toxicity of the compound of the formula (VIII) or (IIId), some of the test compound was intraperitoneally given to ICR-strain mice (in groups each consisting of 6 mice, male, 5 weeks-aged, average body weight 20 g.), when all the tested mice tolerated intraperitoneal administration of (2S,3R)-APHA; (2S)-2-N-[(2'S,3'R)-3'-amino-2'-hydroxy-4'-phenyl-butanoyl]amino-4-methyl- pentanol; (2S)-2-N-[(2'S,3'R)-3'-amino-2'-hydroxy-4'-phenylbutanoyl-(S)-leucyl]amino-4-methyl-pentanol; (2S,3R)-3-amino-2-hydroxy-4-phenylbutanoyl-(S)-leucyl-(S)-leucine; (2S,3R)-3-amino-2-hydroxy-4-phenyl-butanoyl-(S)-leucyl-(S)-arginine; (2S,3R)-3-amino-2-hydroxy-4-phenylbutanoyl-(S)-leucyl-(S)-asparagine; (2R,3R)-3-amino-2-hydroxy-4-phenylbutanoyl-(S)-leucyl-(R)-asparagine; and (2S,3R)-3-amino-2-hydroxy-4-phenylbutanoyl-(S)-leucyl-(R)-arginine at a dosage of 100 mg/kg.

aminopeptidase B = target: T1, aminopeptidase B (Rattus norvegicus, UniProt O09175); assay: aminopeptidase B-inhibiting activity (modified Hopsu method, arginine β-naphthylamide substrate); assay type: biochemical; conditions: 37° C., pH 7.0, 30 minutes
T1 sequence (O09175 1-650): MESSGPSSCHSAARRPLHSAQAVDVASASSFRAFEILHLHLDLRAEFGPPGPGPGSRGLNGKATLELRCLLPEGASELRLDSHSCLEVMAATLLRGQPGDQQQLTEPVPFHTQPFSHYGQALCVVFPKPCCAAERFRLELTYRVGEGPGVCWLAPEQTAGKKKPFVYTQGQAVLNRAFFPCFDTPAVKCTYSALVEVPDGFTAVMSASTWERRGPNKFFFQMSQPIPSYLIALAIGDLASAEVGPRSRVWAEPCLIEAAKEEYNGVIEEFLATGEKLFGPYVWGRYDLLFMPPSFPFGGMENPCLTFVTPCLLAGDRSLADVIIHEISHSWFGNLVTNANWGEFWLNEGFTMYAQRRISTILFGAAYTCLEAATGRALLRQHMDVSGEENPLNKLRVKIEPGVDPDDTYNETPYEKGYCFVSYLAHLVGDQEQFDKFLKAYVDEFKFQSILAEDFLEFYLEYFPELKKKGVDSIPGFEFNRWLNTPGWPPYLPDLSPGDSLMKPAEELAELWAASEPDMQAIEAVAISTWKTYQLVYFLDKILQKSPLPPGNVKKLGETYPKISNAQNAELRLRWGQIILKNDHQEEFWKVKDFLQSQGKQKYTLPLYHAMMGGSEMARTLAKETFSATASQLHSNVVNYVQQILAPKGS
Experimental: The aminopeptidase B-inhibiting activity was determined according to a modification of the method of V. K. Hopsu et al. described in the "Archives of Biochemistry and Biophysics" Vol. 114, 557 (1966). Thus, a mixture of 0.8 ml of 0.1 mM of (S)-arginine β-naphthylamide and 1.0 ml of 0.1M Tris-hydrochloride buffer (pH 7.0) was admixed with 0.7 ml of 0.1M Tris-hydrochloride buffer (pH 7.0) containing the test compound and then heated at 37° C. for 3 minutes. […] After the reaction at 37° C. for 30 minutes, the reaction solution was admixed with 0.6 ml of 0.1M acetate buffer (pH 4.2) containing 1.0 mg/ml of diazonium salt of o-aminoazotoluene (Garnet GBC) and 1.0% of a surfactant "Tween" 20 (a registered trademark) to stop the enzymatic reaction and then allowed to stand at ambient temperature for 15 minutes. After this, absorbance (a) at 525 nm of the reaction solution was measured by spectrophotometer. For the control, the above procedure was repeated without the test compound and the adsorbence (b) was measured. Percentages for inhibition to aminopeptidase B were calculated according to the equation: [formula] Inhibition percentages at various concentrations of the test compound were measured, and from the values of inhibition percentages measured 50% Inhibition Concentration (IC50) was evaluated.

[2] = test system: D.T.H. response in mice immunized with sheep red blood cell (SRBC); assay: Delayed Type Hypersensitivity (D.T.H.) footpad test in mice immunized with SRBC, Example 2; assay type: in vivo, mouse; conditions: CDF1 mice, control = 100
Experimental: This Example describes the tests for evaluation of the immunopotentiating activity of the new compound of this invention.
A suspension of 10^8 sheep red blood cells in 0.05 ml of physiological saline was subcutaneously injected at the time of immunization into the right hind footpad of each CDF1 -mouse under test (female, 8 weeks-aged, 5 mice in each group) to establish D.T.H. Simultaneously to the immunization, […] prepared by dissolving the test compound in physiological saline and then filtering the solution by a micropore filter (pore diameter: 0.22 micrometers). Four days later, 10^8 SRBC were subcutaneously injected into the left […] footpad of each test mouse for elicitation of the D.T.H. response. 24 Hours after the elicitating injection, the increased thickness of the left hind footpad was measured with calipers to estimate the degree of swelling in the footpad. The swelling degree is expressed in term of the values calculated by the equation: [formula] The degree of swelling serves to evaluate the degree of cell-mediated immunity involved. For comparison, a suspension of bestatin dispersed in water was tested in the same way as above.

[3] = test system: D.T.H. response in mice immunized with SRBC as antigen; assay: D.T.H. footpad test in mice immunized with SRBC, Examples 3-6 (dosages per mouse); assay type: in vivo; conditions: for Degree of swelling: control = 100
Experimental: The effect of (2S,3R)-AHPA on cell-mediated immunity was tested in the same way in Example 2, namely according to the D.T.H. technique using mice immunized with sheep red blood cell as antigen. Thus, a suspension of 10^8 sheep red blood cells in 0.05 ml of physiological saline were subcutaneously injected at the time of immunization into the right hind footpad of each CDF1 -mouse under test (female, 8 weeks-aged, 5 mice in each group) to establish D.T.H. […] The degree of swelling was evaluated. By way of comparison, bestatin was tested in the same way as above. […] The effect of (2S,3R)-AHPA on the D.T.H. response was estimated in the same manner as in the above procedure (A) of Example 3 by orally administering 1 mcg/mouse, 0.1 mcg/mouse or 0.01 mcg/mouse of (2S,3R)-AHPA to each mouse under test. […] The effect of the mode of administering (2S,3R)-AHPA on the D.T.H. response was estimated in the same manner as in the procedure (A) of Example 3, except that the test compound (as aqueous solution) was injected intraperitoneally in stead of being given orally.

For `CC(C)C[C@H](NC(=O)[C@@H](O)[C@H](N)Cc1ccccc1)C(=O)N[C@H](CC(N)=O)C(=O)O` [Compound No. 12, (2S,3R)-3-amino-2-hydroxy-4-phenylbutanoyl-(S)-leucyl-(R)-asparagine], the Degree of swelling ([1]; intraperitoneal 0.5 mg/kg/day) was 157%, the “acute toxicity: tolerance of intraperitoneal administration” value (ICR-strain mice) was “tolerated” and the IC50 (aminopeptidase B) was 4.7 mg/L (≈ 11.1 µM). For the same compound, the Degree of swelling ([2]; oral 0.5 mg/kg at immunization) was 133%.
Compound `CC(C)C[C@H](NC(=O)[C@H](CC(C)C)NC(=O)[C@@H](O)[C@H](N)Cc1ccccc1)C(=O)O` [Compound No. 6, (2S,3R)-3-amino-2-hydroxy-4-phenylbutanoyl-(S)-leucyl-(S)-leucine] has a Degree of swelling ([1]; intraperitoneal 0.5 mg/kg/day) of 152%, an IC50 (aminopeptidase B) of 0.20 mg/L (≈ 0.474 µM) and a Degree of swelling ([2]; oral 0.5 mg/kg at immunization) of 120%.
With `CC(C)C[C@H](NC(=O)[C@@H](O)[C@H](N)Cc1ccccc1)C(=O)N[C@H](CCCNC(=N)N)C(=O)O` [Compound No. 10] the Degree of swelling ([1]; intraperitoneal 0.5 mg/kg/day) was 155%, the “acute toxicity: tolerance of intraperitoneal administration” value (ICR-strain mice) was “tolerated” and the IC50 (aminopeptidase B) was 0.39 mg/L (≈ 0.839 µM). The Degree of swelling ([2]; oral 0.5 mg/kg at immunization) was 134%.
Compound `CC(C)C[C@H](NC(=O)[C@@H](O)[C@H](N)Cc1ccccc1)C(=O)N[C@@H](CCCNC(=N)N)C(=O)O` [Compound No. 5, (2S,3R)-3-amino-2-hydroxy-4-phenyl-butanoyl-(S)-leucyl-(S)-arginine] has a Degree of swelling ([1]; intraperitoneal 5 mg/kg/day) of 147%, an IC50 (aminopeptidase B) of 0.11 mg/L (≈ 0.237 µM) and a Degree of swelling ([2]; oral 0.5 mg/kg at immunization) of 135%. The solubility in water (solubility in water) was “soluble in water”.
Work on `CC(C)C[C@H](NC(=O)[C@@H](O)[C@H](N)Cc1ccccc1)C(=O)N[C@@H](CC(N)=O)C(=O)O` [Compound No. 11, (2S,3R)-3-amino-2-hydroxy-4-phenylbutanoyl-(S)-leucyl-(S)-asparagine] yielded a Degree of swelling ([1]; intraperitoneal 0.05 mg/kg/day) of 155%, an IC50 (aminopeptidase B) of 22.4 mg/L (≈ 53 µM) and a Degree of swelling ([2]; oral 0.5 mg/kg at immunization) of 128%.
In the case of `CC(C)C[C@H](NC(=O)[C@@H](O)[C@H](N)Cc1ccccc1)C(=O)O` [Bestatin, (2S, 3R)-3-amino-2-hydroxy-4-phenylbutanoyl-(S)-leucine], the Degree of swelling ([1]; intraperitoneal 5 mg/kg/day) is reported as 130%, the IC50 (aminopeptidase B) is reported as 0.03 mg/L (≈ 0.0973 µM) and the Degree of swelling ([2]; oral 0.05 mg/kg at immunization) is reported as 120-130%. The Degree of swelling ([2]; oral 0.5 mg/kg at immunization) was 140-150%, the solubility in water (solubility in water) was “sparingly soluble in water” and the “Increase in thickness of footpad (± S.D.)” value (“Increase … (± S.D.)” below) ([3]; Table 3, oral 0.1 mcg/mouse) was 9.3 ± 2.70 × 0.1 mm. The Degree of swelling ([3]; Table 3, oral 0.1 mcg/mouse) was 118%, the “Increase … (± S.D.)” value ([3]; Table 3, oral 1 mcg/mouse) was 10.3 ± 0.96 × 0.1 mm and the Degree of swelling ([3]; Table 3, oral 1 mcg/mouse) was 130%. For the same compound, the “Increase … (± S.D.)” value ([3]; Table 3, oral 10 mcg/mouse) was 12.0 ± 1.25 × 0.1 mm, the Degree of swelling ([3]; Table 3, oral 10 mcg/mouse) was 152% and the “Increase … (± S.D.)” value ([3]; Table 4, oral 1 mcg/mouse) was 10.8 ± 1.08 × 0.1 mm. The Degree of swelling ([3]; Table 4, oral 1 mcg/mouse) was 133%, the “Degree of swelling, Intraperitoneal injection” value ([3]; Table 5, intraperitoneal 1 mcg/mouse) was 128% and the “Degree of swelling, Oral administration” value ([3]; Table 5, oral 1 mcg/mouse) was 133%. For the same compound, the “Increase … (± S.D.)” value ([3]; Table 7, oral 1 mcg/mouse) was 11.6 ± 0.91 × 0.1 mm, the Degree of swelling ([3]; Table 7, oral 1 mcg/mouse) was 133% and the “Increase in thickness of footpad (+ S.D.)” value ([3]; Table 8, oral 1 mcg/mouse) was 10.3 ± 1.36 × 0.1 mm. It also gave a Degree of swelling ([3]; Table 8, oral 1 mcg/mouse) of 121%.
